Converted amounts (≈) assume the structure as drawn. The source made the active and inactive calls. The calls are words filed in the database; no cut-off is given here.
Columns and labels:
[1] = test system: Staphylococcus epidermidis; experiment: Antibacterial activity against Staphylococcus epidermidis ATCC 12228 after 24 hrs by 2-fold microtiter broth dilution method; type: functional; details: ATCC 12228, 24 h
Bacillus subtilis = experiment: Antibacterial activity against Bacillus subtilis ATCC 6633 after 24 hrs by 2-fold microtiter broth dilution method; type: functional; details: ATCC 6633, 24 h
Klebsiella pneumoniae = experiment: Antibacterial activity against Klebsiella pneumoniae ATCC 4352 after 24 hrs by 2-fold microtiter broth dilution method; type: functional, organism-based
Salmonella typhimurium = experiment: Antibacterial activity against Salmonella Typhimurium ATCC 14028 after 24 hrs by 2-fold microtiter broth dilution method; type: functional, organism-based; details: Salmonella enterica subsp. enterica serovar Typhimurium
Micrococcus luteus = experiment: Antibacterial activity against Micrococcus luteus ATCC 9341 after 24 hrs by 2-fold microtiter broth dilution method; type: functional, organism-based
Staphylococcus aureus = experiment: Antibacterial activity against Staphylococcus aureus ATCC 6538 after 24 hrs by 2-fold microtiter broth dilution method; type: functional, organism-based
Escherichia coli = experiment: Antibacterial activity against Escherichia coli ATCC 11775 after 24 hrs by 2-fold microtiter broth dilution method; type: functional, organism-based

| MIC [1] | MIC (Bacillus subtilis) | SMILES | Activity (Klebsiella pneumoniae) | Activity (Salmonella typhimurium) | Activity (Micrococcus luteus) | Activity (Staphylococcus aureus) | Activity (Escherichia coli) |
| --- | --- | --- | --- | --- | --- | --- | --- |
| 50 mg/L (≈ 173 µM) | – | O=C(c1ccc(O)cc1)c1nccc2c1[nH]c1ccccc12 [EUDISTOMIN Y1] | – | – | – | – | – |
| – | 200 mg/L (≈ 448 µM) | O=C(c1ccc(O)c(Br)c1)c1nccc2c1[nH]c1ccc(Br)cc12 [EUDISTOMIN Y4] | – | – | – | – | – |
| 12.5 mg/L (≈ 23.8 µM) | 25 mg/L (≈ 47.6 µM) | O=C(c1cc(Br)c(O)c(Br)c1)c1nccc2c1[nH]c1ccc(Br)cc12 [EUDISTOMIN Y6] | inactive | inactive | inactive | inactive | inactive |

— ChEMBL document CHEMBL1144792, “Beta-carboline alkaloids from a Korean tunicate Eudistoma sp” (2008)
